The values that follow come from patent US6541463B1, “Inhibitors of type 5 and type 3 17β-hydroxysteroid dehydrogenase and methods for their use” (Endorecherche, Inc., priority 1998, dated 2003).

Structures are written as SMILES. Like-named read-outs stand apart in the source and are kept apart here.

Test [1] concerns the target T1, human type 5 17β-hydroxysteroid dehydrogenase (Homo sapiens, UniProt P42330).
T1 construct: screen again a human placental λgt11 cDNA to get the full length cDNA clone; expressed in transfected cells; host or cells: human embryonal kidney 293 cells (pCMV / pCMV-neo vector)
T1 sequence (P42330 1-323): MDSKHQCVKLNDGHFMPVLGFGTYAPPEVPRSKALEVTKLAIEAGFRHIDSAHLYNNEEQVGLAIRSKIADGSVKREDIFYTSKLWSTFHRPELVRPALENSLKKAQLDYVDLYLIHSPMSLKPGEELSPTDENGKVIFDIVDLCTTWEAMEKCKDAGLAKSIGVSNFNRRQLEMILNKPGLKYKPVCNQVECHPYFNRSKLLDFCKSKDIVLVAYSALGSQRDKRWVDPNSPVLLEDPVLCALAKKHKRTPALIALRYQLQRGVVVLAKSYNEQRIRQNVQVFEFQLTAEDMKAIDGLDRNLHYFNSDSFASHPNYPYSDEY
Briefly: Reversibility of human type 5 17β-HSD inhibitory activity (preincubation, wash). Format: cell-based. The procedure: In column 3, the reversibility of the inhibition of type 5 17β-hydroxysteroid dehydrogenase activity expressed in percentage of control is reported. The manner in which the reversibility is determined is described in “Efficacy of Preferred Inhibitors: V. Reversibility of Human Type 5 17β-HSD Inhibitory Activity”. Lower number is desirable. Blank means that a determination was not done.
Determination of activity was performed as described (Luu-The et al., Mol. Endocrionol. 4: 268-275, 1990, Lachance et al., J. Biol. Chem. 265: 20469-20475, 1990; Luu-The et al., DNA & Cell Biol. 14: 511-518, 1995). Briefly, 0.1 μM of the indicated ^14C-labeled substrate (Dupont Inc. (Canada), namely, DHEA, 4-androstene-3,17-dione (Δ4), in absence or presence of increasing concentration of preferred inhibitor of the invention, was added to freshly changed culture medium in a 6-well culture plate. After incubation for 1 h, the steroids were extracted twice with 2 ml of ether. The organic phase were pooled and evaporated to dryness. The steroids were solubilized in 50 μl of dichloromethane, applied to Silica gel 60 thin layer chromatography (TLC) plate (Merck, Darmstad, Germany) then separated by migration in the toluene-acetone (4:1) solvent system. […] Transfection could be also performed with HeLa, SW-13, 293, COS-1 cells, the preferred cell line is 293 cells.
The reversibility assay was performed as described above for the standard type 5 17β-HSD enzymatic assay, except that before adding the ^14C-labeled substrate, the cells were preincubated with 0.3 μM of the indicated inhibitor for 1 h, (or the indicated time interval), followed by two washes with phosphate saline buffer (PBS).

A further test concerns ZR-75-1 cells. In words: Antiestrogenic activity: inhibition of E2-induced proliferation of ZR-75-1 cells. To be noted: for ZR-75-1 Activity E2 E^−6: with E2, E^−6. Format: cell-based, human. Further details: ZR-75-1 Activity, E2 / ZR-75-1 Activity E2 E^−6: unit not given here. The procedure:
The manner in which the inhibition is determined is described in “Other Tests; C-Estrogenic/Antiestrogenic Activity”. Lower numbers are desirable. ND means that a determination was not done.
Estrogenic/antiestrogenic activity of some preferred compounds has been measured using the […] human breast cancer cell line as described in more detail below.
All media and medium supplments were purchased from Sigma. Cells were subcultured weekly by treatment with a pancreatic solution containing EDTA (0.2 g/L). The cell cultures used for the experiments herein describied were between passages 89 and 94.
Cells in their logarithmic growth phase were harvested, briefly centrifuged, and resuspended in RPMI 1640. Cells were then plated in triplicate in LIMBRO 24-well plastic culture plates (2 cm^2/well). Since plating density influences the effect of hormones on ZR-75-1 cell growth, cells were plated at a density of 1×10^4 cells/well. […] Control cultures received the ethanol vehicle only. Cells were then allowed to grow at 37° C. for 10 days with medium changes (of identical composition) every 2 days.
After E2 and/or antiestrogen treatment, cells were harvested by addition of 0.5 ml of a pancreatin solution (Sigma) for 5-10 min at 37° C. before addition of 0.5 mnl of RPMI 1640 containing 5% dextran coated […] bovine serum in order to block enzymatic action. Cell number (0.10 ml aliquot) was determined by measurement of DNA content as previously described (Simard et al., Endocrinology 126: 3223-3231,1990).

[2] abbreviates: Table 4′, E2-induced proliferation, 3E^−8.

Turning to `COCCOc1cc2c(cc1C#N)C1CC[C@@]3(C)C(CC[C@@]34CCC(C)(C)C(=O)O4)C1CC2` (stereo partly shown) [EM-1396], the “Reversibility ((%) of control)” value in test [1] (Table 4′) was 28 % of control. In the test on ZR-75-1 cells (setting [2]), the “ZR-75-1 Activity, E2 3E^−8” value was “+12%”.
The like results for `CC1(C)CCC2(CCC3C4CCc5cc(OS(C)(=O)=O)ccc5C4CCC32C)OC1=O` (stereo not shown) [EM-1365-CS] were, in that order, 49 % of control and −17%.
With `COCCOc1cc2c(cc1C(=O)OC)C1CC[C@@]3(C)C(CC[C@@]34CCC(C)(C)C(=O)O4)C1CC2` (stereo partly drawn) [EM-1402-CS, 2-Carbomethoxy-3-(2″-methoxyethyloxy)-1,3,5(10)-estratrien 17(R)-spiro-2′-(5′,5′-dimethyl-6′-oxo)tetrahydropyran], in test [1] (Table 4′), the “Reversibility ((%) of control)” value is given as 25 % of control. Besides, in the test on ZR-75-1 cells (Homo sapiens, ZR-75-1, 10^−6 M inhibitor, negative number = stimulation reduced, read-out: percentage of inhibition of E2-induced proliferation of ZR-75-1 cells), the inhibition at 1 µM stood at 61%. In the test on ZR-75-1 cells (setting [2]), the “ZR-75-1 Activity, E2 3E^−8” value is listed as 0%.
Take `COCCOc1cc2c(cc1Cl)C1CCC3(C)C(CCC34CCC(C)(C)C(=O)O4)C1CC2` (stereo not shown) [EM-1371-CS]: the “Reversibility ((%) of control)” value in test [1] (Table 4′) was 40 % of control. The “ZR-75-1 Activity, E2 3E^−8” value with ZR-75-1 cells (setting [2]) came out at 0%.
On to `CC(C)C[C@@H]1CC2C3C=CC4=CC(=O)CC[C@]4(C)C3CC[C@]2(C)C1=O` (stereo partly shown) [EM-1273-CS], for which the “Reversibility ((%) of control)” value in test [1] stood at 40%. Also, the “ZR-75-1 Activity, E2 3E^−8” value with ZR-75-1 cells (with E2, 3E^−8) came out at 0. Besides, the “ZR-75-1 Activity E2 E^−6” value with ZR-75-1 cells is recorded as −30.
On to `CCC[C@@H]1CC2C3C=CC4=CC(=O)CC[C@]4(C)C3CC[C@]2(C)C1=O` (stereo partly shown) [EM-1097], for which the “Reversibility ((%) of control)” value in test [1] was 45%. The “ZR-75-1 Activity, E2 3E^−8” value with ZR-75-1 cells (with E2, 3E^−8) was determined as 0. Moreover, the “ZR-75-1 Activity E2 E^−6” value with ZR-75-1 cells is 0.
Regarding `COCCOc1cc2c(cc1C(N)=O)C1CC[C@@]3(C)C(CC[C@@]34CCC(C)(C)C(=O)O4)C1CC2` (stereo partly drawn) [EM-1424, 2-Carbamoyl-3-(2″-methoxyethyloxy)-1,3,5(10)-estratrien 17(R)-spiro-2′-(5′,5′-dimethyl-6′-oxo)tetrahydropyran], the “Reversibility ((%) of control)” value in test [1] (Table 4′) is recorded as 17 % of control. The “ZR-75-1 Activity, E2 3E^−8” value in the test on ZR-75-1 cells (setting [2]) was −11%.
For `COc1ccc2c(c1)C(=O)CC1C3CCC4(CCC(C)(C)C(=O)O4)C3(C)CCC21O` (stereo not shown) [EM-1386], in test [1] (Table 4′), the “Reversibility ((%) of control)” value was 54 % of control. Besides, the “ZR-75-1 Activity, E2 3E^−8” value in the test on ZR-75-1 cells (setting [2]) came out at 0%.
